# Where two headings read alike, the source gives them in different places.
# Columns and labels:
# [1] = tested on: Oriental Fruit Moth (Grapholita molesta); experiment: Control test on oriental fruit moth of pear, spray, rate of infected fruit after 40 days; type: in vivo; conditions: 40 days after spraying
# Experimental: (§1) Control Test on Oriental Fruit Moth (Grapholita molesta) and Scab (Venturia nashicola) of Pear
# (§2) A liquid chemical which was prepared to the prescribed concentration was sufficiently sprayed on 17-year-old pears (cultivar: Hosui) (early June). After 40 days from spraying, the number of infected fruits due to Grapholita molesta was examined for all fruit in the plot, and the rate of infected fruit was calculated. Furthermore, after 14 days from spraying, infection of Venturia nashicola was examined by the degrees for optional 200 leaves in the plot and the severity index was calculated according to the following equation. Severity index=Z(number of infected leaves by the degrees×index)×100/(number of examined leaves×5)
# [2] = tested on: Cucumber Moth (Diaphania indica); experiment: Insecticidal test on cucumber moth, sprayed cucumber leaves, mortality; type: in vivo; conditions: for Diaphania indica Mortality (%): 10 ppm
# Experimental: (§3) Insecticidal Test on Cucumber Moth (Diaphania indica) and Control Test on Powdery Mildew (Sphaerotheca fuliginea) of Cucumbers
# (§4) A liquid chemical which was prepared to the prescribed concentration was sufficiently sprayed on cucumbers (cultivar: sagami-hanpaku) cultured in a greenhouse. After 7 days from spraying, leaves were cut off and put into a plastic cup (diameter: 10 cm, height: 10 cm) along with 5 of second-stage larvae of Diaphania indica, and the mortality was examined 4 days thereafter. Furthermore, 1 day after spraying, the leaves of cucumbers which were previously arranged to be infected by pathogen were uniformly wiped with Sphaerotheca fuliginea thereon using a paintbrush for inoculation and examined after 10 days thereafter. The area occupied by lesion per leaf of cucumber was examined in accordance with the following index, and the control value was calculated from the average severity index of each plot according to the following equation (two replications).
# [3] = tested on: Powdery Mildew (Sphaerotheca fuliginea); experiment: Control test on powdery mildew of cucumbers, spray, control value from severity index; type: in vivo
# Experimental: as §3, §4
# Severity Index • 0: No lesion • 1: Lesion area was not more than 5% • 2: Lesion area was from 6 to 25% • 3: Lesion area was from 26 to 50% • 4: Lesion area was not less than 51% Control Value=(1−average severity in the treated plot/average severity in the untreated plot)×100
# [4] = tested on: Scab (Venturia nashicola); experiment: Control test on scab of pear, spray, severity index after 14 days; type: in vivo; conditions: 14 days after spraying
# Experimental: as §1, §2
# [5] = tested on: Common Straight Swift Butterfly (Parnara guttata); experiment: Control test on common straight swift butterfly of paddy rice, powder spray, number of insects after 20 days (Test Example 8); type: in vivo; conditions: 20 days after spraying
# [6] = tested on: Rice Blast (Pyricularia oryzae); type: in vivo
# [7] = tested on: Small Brown Planthopper (Laodelphax striatellus); experiment: Control test on small brown planthopper, nursery box application of paddy rice, number of parasitic insects after 40 and 60 days; type: in vivo
# Experimental: (§5) Control Test on Small Brown Planthopper (Laodelphax striatellus) and Rice Leafroller (Cnaphalocrocis medinalis) on Nursery Box Application of Paddy Rice
# (§6) Rice (cultivar: Nihonbare) cultured in a nursery box was treated with 50 g of a granule formulation per box, and then transplanted to the rice field. For the control effect against Laodelphax striatellus, the number of parasitic insects was examined for 30 stumps per plot after 40 days and 60 days from the transplantation. In addition, for the control effect against Cnaphalocrocis medinalis, the number of infected leaves was examined for 100 stumps per plot after 50 days from the transplantation, and the infected leaf rate was calculated. In the Table, gai represents the amount of active ingredients (g).
# [8] = tested on: Rice Leafroller (Cnaphalocrocis medinalis); experiment: Control test on rice leafroller, nursery box application of paddy rice, infected leaf rate after 50 days; type: in vivo; conditions: 50 days after transplantation
# Experimental: as §5, §6
# [9] = tested on: Tiger Moth (Trichoplusia ni); experiment: Insecticidal test on tiger moth, cabbage leaf dip, mortality after 6 days; type: in vivo; conditions: 0.5 ppm; 6 days after treatment
# Experimental: Insecticidal Test on Tiger Moth (Trichoplusia ni)
# Cut leaves of cabbages (cultivar: shiki-kaku) were immersed in a liquid chemical which was diluted and prepared to the prescribed concentration for 30 seconds, air-dried, and then put into a plastic vessel having a diameter of 9 cm. Each of 10 second-stage insects of Trichoplusia ni was inoculated and the resulting vessel was allowed to stand in an isothermal chamber maintained at 25 degree centigrade. After 6 days from the treatment, the number of surviving insects was examined and the mortality was calculated (two replications of 10 insects per plot).
# [10] = tested on: 2-spotted Spider Mite (Tetranychus urticae); experiment: Insecticidal test on 2-spotted spider mite, kidney bean leaf disc with eggs, hatchability of larvae after 6 days; type: in vivo; conditions: 50 ppm; 6 days after spraying
# Experimental: Insecticidal Test on 2-spotted Spider Mite (Tetranychus urticae)
# A plastic cup having a diameter of 8 cm was filled with water and covered by a lid with a hole having a diameter of 1 cm. Absorbent cotton was put on the top of the lid and dropped into water from the lid such that the absorbent cotton was always in a wet state due to a capillary phenomenon. A leaf disc having a diameter of 2 cm was prepared with primary leaves of kidney beans (cultivar: Green top) and placed on the aforementioned absorbent cotton. 4 adult female insects of Tetranychus urticae were inoculated thereon. Next day, the adult female insects were removed, and then the number of insect egg was examined. A liquid chemical which was prepared to the prescribed concentration was sprayed by using a vertical sprayer. After spraying, the resulting cup was allowed to stand in an isothermal chamber maintained at 25 degree centigrade. After 6 days from spraying, the number of hatched larvae that survived on the leaf disc was examined and the hatchability of larvae was calculated (two replications of one concentration per chemical).
# [11] = tested on: Rice Striped Stem Borer (Chilo suppressalis); conditions: 5 gai/box
# [12] = tested on: Rice Blast (Pyricularia oryzae); type: in vivo; conditions: in vivo
# [13] = tested on: Resistant Cotton Melon Aphid (Aphis gossypii); type: in vivo; conditions: 3 ppm, foliar spray on cucumber, 5 days after spraying
# [14] = tested on: Small Brown Planthopper (Laodelphax striatellus); experiment: Insecticidal test on small brown planthopper, sprayed rice seedlings, mortality after 6 days; type: in vivo; conditions: 3 ppm, sprayed rice seedlings, 6 days after treatment
# Experimental: Insecticidal Test on Small Brown Planthopper (Laodelphax striatellus)
# A liquid chemical which was diluted and prepared to the prescribed concentration was sprayed on rice seedlings (cultivar: koshihikari), air-dried, and then 10 three-stage insects of Laodelphax striatellus were put into a glass test tube having a diameter of 3 cm and a height of 10 cm along with the seedlings. The test tube was cotton plugged. After 6 days from the treatment, the number of surviving insects was examined and the mortality was calculated (two replications of 10 insects per plot).
# [15] = tested on: Green Peach Aphid (Myzus persicae); type: in vivo; conditions: 3 ppm, foliar spray on eggplant, 5 days after spraying
# [16] = tested on: Sheath Blight (Rhizoctonia solani); experiment: Control test on sheath blight of paddy rice, powder spray, rate of infected stumps after 30 days; type: in vivo; conditions: 20 gai/10a; 30 days after spraying
# Source text: (§7) Control Test on Common Straight Swift Butterfly (Parnara guttata) and Sheath Blight (Rhizoctonia solani) of Paddy Rice
# (§8) A powder of a prescribed amount was sprayed on rice (cultivar: koshihikari) after 70 days from the transplantation (middle of May) Leaves on which Parnara guttata was parasitic before spraying were eliminated. After 20 days from spraying, the number of insects was examined for 100 stumps in each plot. Furthermore, 7 days before spraying, Rhizoctonia solani cultured on a bran medium was inoculated into the base of the plant. After 30 days from spraying, the number of infected stumps was examined for 100 stumps in each plot and the rate of infected stumps was calculated. In the Table, gai represents the amount of active ingredients (g).
# [17] = tested on: Clubroot (Plasmodiophora brassicae); experiment: Control test on clubroot of cabbage, soil treatment, control value after 60 days; type: in vivo; conditions: 60 days after treatment
# Experimental: (§9) Control Test on Turnip Moth (Agrotis segetum) and Clubroot (Plasmodiophora brassicae) of Cabbage due to Soil Treatment
# (§10) A powder in a prescribed amount was mixed to soil and cabbages (cultivar: shiki-kaku) cultured on a cell medium were planted out. After 7 days from the treatment, the number of infected stumps due to Agrotis segetum was examined and the rate of infected stumps was calculated. Furthermore, after 60 days from the treatment, stumps were picked out, and lesion formation of Plasmodiophora brassicase was examined according to the degrees of severity. The control value was calculated from the average severity index of each plot according to the following equation. In the Table, gai represents the amount of active ingredients (g).
# Severity Index • 0: No clubroot attached • 1: Clubroot was attached at a portion of from 1 to 25% of the whole root • 2: Clubroot was attached at a portion of from 25 to 50% of the whole root • 3: Clubroot was attached at a portion of from 50 to 75% of the whole root • 4: Clubroot was attached at a portion of from 75% or more of the whole root Control Value=(1−average severity in the treated plot/average severity in the untreated plot)×100
# [18] = tested on: Turnip Moth (Agrotis segetum); experiment: Control test on turnip moth of cabbage, soil treatment, rate of infected stumps after 7 days; type: in vivo; conditions: 7 days after treatment
# Experimental: as §9, §10
# [19] = tested on: Common Straight Swift Butterfly (Parnara guttata); experiment: Control test on common straight swift butterfly of paddy rice, powder spray, number of insects after 20 days (Test Example 9); type: in vivo; conditions: 20 gai/10a; 20 days after spraying
# Source text: as §7, §8
smiles,measurement,setting,value
CC(C)CC(C)c1sccc1NC(=O)c1cn(C)nc1C(F)(F)F (stereo not drawn) [penthiopyrad],Grapholita molesta Infected fruit rate (%),[1]; 75 ppm,19.8%
same,mortality at 3.15 ppm,"[2]; Diaphania indica, 3.15 ppm",0%
same,Sphaerotheca fuliginea Control value,[3]; 3.15 ppm,95
same,Venturia nashicola Severity index,[4]; 75 ppm,3.7
C[C@H]1O[C@H](O[C@H]2[C@H](O)[C@@H](O)[C@@H](O)[C@H](O)[C@@H]2O)[C@@H](N)C[C@@H]1NC(=N)C(=O)O [kasugamycin],Number (insects/100 stumps),[5]; 12 gai/10a,162 insects/100 stumps
same,Pyricularia oryzae Control value,"[6]; 12 gai/10a, panicle blast, 30 days after spraying",91
O=C1OCc2c(Cl)c(Cl)c(Cl)c(Cl)c21 [fthalide],Number (insects/100 stumps),[5]; 100 gai/10a,150 insects/100 stumps
same,Pyricularia oryzae Control value,"[6]; 100 gai/10a, panicle blast, 30 days after spraying",90
Cc1cc(C(F)(C(F)(F)F)C(F)(F)F)cc(C)c1NC(=O)c1cccc(NC(=O)c2cccnc2Cl)c1F [compound 639],Laodelphax striatellus Number of parasitic insects/30 stumps,"[7]; 5 gai/box, 40 days",65 insects/30 stumps
same,Laodelphax striatellus Number of parasitic insects/30 stumps,"[7]; 5 gai/box, 60 days",120 insects/30 stumps
same,Cnaphalocrocis medinalis Infected leaf rate (%),[8]; 5 gai/box,0.39%
same,Mortality (%),[9],80%
same,Hatchability of larvae (%),[10],82%
same,Chilo suppressalis Mortality (%),[11],90%
same,Pyricularia oryzae Control value,[12],3
same,Control rate (%),[13],12%
same,Mortality (%),[14],0%
same,Control rate (%),[15],10%
Cc1cc(C(F)(C(F)(F)F)C(F)(F)F)cc(C)c1NC(=O)c1cccc(N(C)C(=O)c2cccnc2F)c1F [Compound 1246],Laodelphax striatellus Number of parasitic insects/30 stumps,"[7]; 5 gai/box, 40 days",77 insects/30 stumps
same,Laodelphax striatellus Number of parasitic insects/30 stumps,"[7]; 5 gai/box, 60 days",137 insects/30 stumps
same,Cnaphalocrocis medinalis Infected leaf rate (%),[8]; 5 gai/box,0.28%
same,Chilo suppressalis Mortality (%),[11],95%
same,Pyricularia oryzae Control value,[12],0
Cc1cc(C(F)(C(F)(F)F)C(F)(F)F)cc(C)c1NC(=O)c1cccc(N(C)C(=O)c2ccccc2)c1F [Compound 1208],Mortality (%),[9],75%
same,Hatchability of larvae (%),[10],78%
same,Number (insects/100 stumps),[5]; 20 gai/10a,1 insects/100 stumps
same,Grapholita molesta Infected fruit rate (%),[1]; 50 ppm,1.9%
same,Rate of infected stumps (%),[16],99%
same,Diaphania indica Mortality (%),[2],95%
same,Plasmodiophora brassicae Control value,[17]; 100 gai/10a,9
same,Agrotis segetum Infected stump rate (%),[18]; 100 gai/10a,2.8%
same,Control rate (%),[13],18%
same,Sphaerotheca fuliginea Control value,[3]; 10 ppm,0
same,Mortality (%),[14],10%
same,Venturia nashicola Severity index,[4]; 50 ppm,52.4
same,Pyricularia oryzae Control value,[6]; in vivo,5
same,Control rate (%),[15],20%
same,Number of insects (number/100 stumps),[19],1 number/100 stumps
CCCc1cc(C(F)(C(F)(F)F)C(F)(F)F)cc(Br)c1NC(=O)c1cccc(NC(=O)c2ccccc2)c1 [Compound 178],Grapholita molesta Infected fruit rate (%),[1]; 50 ppm,3.4%
same,Diaphania indica Mortality (%),[2],90%
same,Plasmodiophora brassicae Control value,[17]; 100 gai/10a,5
same,Agrotis segetum Infected stump rate (%),[18]; 100 gai/10a,5.6%
same,Sphaerotheca fuliginea Control value,[3]; 10 ppm,0
same,Venturia nashicola Severity index,[4]; 50 ppm,51.5
CC(Oc1ccc(Cl)cc1Cl)C(=O)NC(C)(C#N)C(C)C (stereo not drawn) [fenoxanil],Number (insects/100 stumps),[5]; 40 gai/10a,155 insects/100 stumps
same,Pyricularia oryzae Control value,"[6]; 40 gai/10a, panicle blast, 30 days after spraying",88
"Cc1cc(C(F)(C(F)(F)F)C(F)(F)F)cc(C)c1NC(=O)c1cccc(NC(=O)c2ccccc2)c1F [Compound No. 601, N-(2,6-dimethyl-4-heptafluoroisopropyl)phenyl 3-(benzoylamino)-2-fluorobenzamide]",Number (insects/100 stumps),[5]; 20 gai/10a,1 insects/100 stumps
same,Grapholita molesta Infected fruit rate (%),[1]; 50 ppm,2.3%
same,Rate of infected stumps (%),[16],96%
same,Diaphania indica Mortality (%),[2],95%
same,Plasmodiophora brassicae Control value,[17]; 100 gai/10a,0
same,Agrotis segetum Infected stump rate (%),[18]; 100 gai/10a,2.8%
same,Sphaerotheca fuliginea Control value,[3]; 10 ppm,0
same,Venturia nashicola Severity index,[4]; 50 ppm,53.0
same,Pyricularia oryzae Control value,[6]; in vivo,7
same,Number of insects (number/100 stumps),[19],2 number/100 stumps
Cc1cc(C(F)(C(F)(F)F)C(F)(F)F)cc(C)c1NC(=O)c1cccc(N(C)C(=O)c2ccc(Cl)nc2)c1F [Compound 1247],Laodelphax striatellus Number of parasitic insects/30 stumps,"[7]; 5 gai/box, 40 days",69 insects/30 stumps
same,Laodelphax striatellus Number of parasitic insects/30 stumps,"[7]; 5 gai/box, 60 days",121 insects/30 stumps
same,Cnaphalocrocis medinalis Infected leaf rate (%),[8]; 5 gai/box,0.25%
same,Mortality (%),[9],65%
same,Hatchability of larvae (%),[10],74%
same,Control rate (%),[13],10%
same,Mortality (%),[14],5%
same,Control rate (%),[15],6%
O=[N+]([O-])NC1=NCCN1Cc1ccc(Cl)nc1 [imidacloprid],Laodelphax striatellus Number of parasitic insects/30 stumps,"[7]; 1 gai/box, 40 days",0 insects/30 stumps
same,Laodelphax striatellus Number of parasitic insects/30 stumps,"[7]; 1 gai/box, 60 days",9 insects/30 stumps
same,Cnaphalocrocis medinalis Infected leaf rate (%),[8]; 1 gai/box,1.77%
O=[N+]([O-])c1ccc(NS(=O)(=O)c2ccc(Cl)c(C(F)(F)F)c2)c(Cl)c1 [flusulfamide],Plasmodiophora brassicae Control value,[17]; 60 gai/10a,91
same,Agrotis segetum Infected stump rate (%),[18]; 60 gai/10a,36.1%
